This assay has as its system Plasmodium berghei. The experiment in a line: Luciferase/luciferin-expressing antifolate-resistant parasites were used to infect a culture of HepG2 cells that were pre-incubated with compounds. Infected hepatocytes emit light due to the luciferase reaction. Assay results are presented as the percent inhibition of light emission compared to control. […]. The assay is classed as functional. Conditions: sporozoite; for IC90: read-out: LUCIFERASE INFECTION ASSAY - IC90.

The mark [1] stands for this setting: read-out: LUCIFERASE INFECTION ASSAY - IC50.

The values below come from ChEMBL document CHEMBL4483862, “Open-source discovery of chemical leads for next-generation chemoprotective antimalarials” (2018).

Take `N#CC(C(=O)c1ccc(Br)s1)c1nc2ccccc2s1` (centres undefined): the IC90 turned out to be 3.8 µM. Besides, where the note is “HEPG2TOX_HILL_SLOPE 2.2, HEPG2TOX_R_SQUARED 0.729, PBLUC_HILL_SLOPE 11.3, 11.3, PBLUC_R_SQUARED 0.872, 0.879, read-out: LUCIFERASE INFECTION ASSAY - IC50”, the IC50 worked out at 3.13 µM.
With `COc1ccc(OC)c(CCNc2nc3cnc(-c4cncnc4)cc3n2C)c1`, the IC90 is greater than 10 µM. Moreover, under “HEPG2TOX_HILL_SLOPE 2.17, HEPG2TOX_R_SQUARED 0.775, PBLUC_HILL_SLOPE 2.72, PBLUC_R_SQUARED 0.417, read-out: LUCIFERASE INFECTION ASSAY - IC50”, the IC50 worked out at 4.95 µM.
Take `CC(C)(C)c1cc(C(=O)/C(C#N)=N/Nc2cccc(Cl)c2)no1`: the IC90 was found to be 9.64 µM. For the same compound, the IC50 (HEPG2TOX_HILL_SLOPE 1.6, HEPG2TOX_R_SQUARED 0.978, PBLUC_HILL_SLOPE 25.6, PBLUC_R_SQUARED 0.306, read-out: LUCIFERASE INFECTION ASSAY - IC50) was determined as 8.85 µM.
For the compound `CC(OC(=O)C1CCN(C(=O)c2ccc(Cl)cc2)CC1)C(=O)Nc1ccc([N+](=O)[O-])cc1C(F)(F)F` (centres undefined), the IC90 was greater than 10 µM. Also, under setting [1], the IC50 was greater than 10 µM.
As to `CCc1nc2oc3ccccc3c(=O)c2c(=O)n1CCc1ccccc1`, the IC90 is greater than 9.53 µM. Moreover, the IC50 (HEPG2TOX_HILL_SLOPE 2.79, HEPG2TOX_R_SQUARED 0.325, PBLUC_HILL_SLOPE 2.85, PBLUC_R_SQUARED 0.319, read-out: LUCIFERASE INFECTION ASSAY - IC50) is 4.63 µM.
Regarding `COc1ccc(CC(=O)N2CCN(C)c3nc4ccccc4nc32)cc1F`, the IC90 was found to be 9.57 µM. The IC50 (HEPG2TOX_HILL_SLOPE 1.64, HEPG2TOX_R_SQUARED 0.943, PBLUC_HILL_SLOPE 1.87, PBLUC_R_SQUARED 0.437, read-out: LUCIFERASE INFECTION ASSAY - IC50) was 2.96 µM.
Take `Cc1nc2ccccc2nc1SCC(=O)c1ccc(NS(C)(=O)=O)cc1`: the IC90 was greater than 10 µM. For the same compound, the IC50 (FFLUC_HILL_SLOPE 1.05, FFLUC_R_SQUARED 0.177, HEPG2TOX_HILL_SLOPE 1.12, HEPG2TOX_R_SQUARED 0.682, read-out: LUCIFERASE INFECTION ASSAY - IC50) was greater than 10 µM.
Regarding `CC(=O)c1c(C)[nH]c(C(=O)Nc2ccc(C)c(S(=O)(=O)Nc3ccc(C)cc3C)c2)c1C`, the IC90 was greater than 10 µM. The IC50 (HEPG2TOX_HILL_SLOPE 7.64, HEPG2TOX_R_SQUARED 0.623, PBLUC_HILL_SLOPE 8.53, PBLUC_R_SQUARED 0.404, read-out: LUCIFERASE INFECTION ASSAY - IC50) turned out to be 9.43 µM.
Take `CC(C)OCCCNCC(O)COCc1ccccc1Cl` (centres undefined): the IC90 was greater than 10 µM. For the same compound, the IC50 under setting [1] is greater than 10 µM.
Regarding `CCOC(=O)c1sc2nc(C)nc(N(C)Cc3ccccc3)c2c1C`, the IC90 was greater than 10 µM. Also, under “PBLUC_HILL_SLOPE 1.75, PBLUC_R_SQUARED 0.422, read-out: LUCIFERASE INFECTION ASSAY - IC50”, the IC50 was 7.96 µM.
For the compound `O=C1OC(C23CC4CC(CC(C4)C2)C3)=N/C1=C\c1ccc(Cl)c([N+](=O)[O-])c1`, the concentration for an effect of 90% (IC90) is greater than 10 µM. Besides, the half-inhibitory concentration (IC50) under setting [1] is greater than 10 µM.
On to `Cn1nc(-c2ccc(/C=N/NC(=O)c3ccc(Cl)cc3)s2)cc1C(F)(F)F`, for which the IC90 came out at 3.23 µM. Further, the IC50 (HEPG2TOX_HILL_SLOPE 12, HEPG2TOX_R_SQUARED 0.148, PBLUC_HILL_SLOPE 12.7, PBLUC_R_SQUARED 0.63, read-out: LUCIFERASE INFECTION ASSAY - IC50) is 2.72 µM.
With `C=CCSc1nnc(-c2ccco2)n1-c1ccc(OCc2ccccc2)cc1`, the IC90 is greater than 8.47 µM. Further, the concentration for half-maximal inhibition (IC50) under setting [1] is greater than 8.47 µM.
Turning to `COc1ccccc1Oc1ccc(S(=O)(=O)N(c2cccnc2)S(=O)(=O)c2ccc(Oc3ccccc3OC)cc2)cc1`, the IC90 is greater than 10 µM. The IC50 under setting [1] was greater than 10 µM.
In the case of `CS(=O)(=O)Nc1cccc(-c2cnc3ccc(Cc4ccc(F)cc4)nn23)c1`, the IC90 is 5.12 µM. For the same compound, the IC50 (PBLUC_HILL_SLOPE 7.81, PBLUC_R_SQUARED 0.241, read-out: LUCIFERASE INFECTION ASSAY - IC50) came out at 3.87 µM.
Regarding `Cc1ccc(/C=N/n2c(-c3cc(C)c(C)cc3C)cs/c2=N\CC2CCCO2)o1` (centres undefined), the IC90 was found to be 3.52 µM. Moreover, the IC50 (FFLUC_HILL_SLOPE 16.3, FFLUC_R_SQUARED 0.0442, HEPG2TOX_HILL_SLOPE 1.44, HEPG2TOX_R_SQUARED 0.874, PBLUC_HILL_SLOPE 40.1, PBLUC_R_SQUARED 0.415, read-out: LUCIFERASE INFECTION ASSAY - IC50) was 3.33 µM.
Consider `Cc1cc(/C=N/Nc2nncc3ccccc23)c(C)n1-c1ccc(I)cc1`, for which the IC90 was greater than 10 µM. Also, under “PBLUC_HILL_SLOPE 2.06, PBLUC_R_SQUARED 0.597, read-out: LUCIFERASE INFECTION ASSAY - IC50”, the IC50 is 6.98 µM.
As to `CC(C)Cc1ccc(C(=O)CC(Sc2ccccc2N)c2ccc(C(F)(F)F)cc2)cc1` (centres undefined), the IC90 stood at 0.452 µM. Also, the IC50 (FFLUC_HILL_SLOPE 10.1, FFLUC_R_SQUARED 0.429, PBLUC_HILL_SLOPE 1.99, PBLUC_R_SQUARED 0.752, read-out: LUCIFERASE INFECTION ASSAY - IC50) is 0.15 µM.
As to `Nc1nccnc1C(=O)Nc1nc2ccc(Oc3ccccc3)cc2s1`, the IC90 was greater than 10 µM. For the same compound, the IC50 under setting [1] was greater than 10 µM.
`CC(=O)Nc1cccc(Oc2ccc(C(=O)Nc3ccc4ccccc4c3)cc2[N+](=O)[O-])c1`: the concentration for an effect of 90% (IC90) was 1.68 µM. For the same compound, the IC50 (HEPG2TOX_HILL_SLOPE 7.7, HEPG2TOX_R_SQUARED 0.774, PBLUC_HILL_SLOPE 1.37, PBLUC_R_SQUARED 0.884, read-out: LUCIFERASE INFECTION ASSAY - IC50) was found to be 0.337 µM.
Regarding `Cc1cc(C)c(N/C=C2/C(=O)N(c3ccccc3Cl)C(=O)c3ccccc32)c(C)c1`, the IC90 was greater than 10 µM. The IC50 under setting [1] is greater than 10 µM.
As to `Cc1sc2ncnc(Sc3ccccc3C(=O)NNc3c(Cl)cc(Cl)cc3Cl)c2c1C`, the IC90 was greater than 10 µM. Also, the IC50 under setting [1] was greater than 10 µM.
Regarding `COc1ccc(Cn2nc(-c3ccccc3)cc2-c2ccccc2O)cc1`, the IC90 was determined as 1.33 µM. Moreover, the IC50 (HEPG2TOX_HILL_SLOPE 8.58, HEPG2TOX_R_SQUARED 0.567, PBLUC_HILL_SLOPE 13.6, PBLUC_R_SQUARED 0.554, read-out: LUCIFERASE INFECTION ASSAY - IC50) stood at 1.13 µM.
For the compound `CC(OC(=O)c1ccccc1Nc1ccccc1)C(=O)NC1CC1` (centres undefined), the IC90 is greater than 10 µM. Also, the IC50 (PBLUC_HILL_SLOPE 8.51, PBLUC_R_SQUARED 0.0555, read-out: LUCIFERASE INFECTION ASSAY - IC50) worked out at 8.65 µM.
In the case of `O=C(Nc1cccc(C(F)(F)F)c1)OCCSc1ccc([N+](=O)[O-])c2nonc12`, the concentration for an effect of 90% (IC90) is greater than 7.7 µM. Also, where the note is “FFLUC_HILL_SLOPE 1.97, FFLUC_R_SQUARED 0.686, HEPG2TOX_HILL_SLOPE 15.6, HEPG2TOX_R_SQUARED 0.779, read-out: LUCIFERASE INFECTION ASSAY - IC50”, the IC50 is greater than 7.7 µM.
As for `Cc1[nH]c(-c2ccccn2)nc(=O)c1CC(=O)NC1CCCCCCC1`, the IC90 worked out at 1.71 µM. Besides, the 50% inhibitory concentration (IC50) (PBLUC_HILL_SLOPE 61.7, PBLUC_R_SQUARED 0.378, read-out: LUCIFERASE INFECTION ASSAY - IC50) was determined as 1.65 µM.
Turning to `Cc1cc(C(=O)C(C)OC(=O)c2ccc(S(C)(=O)=O)c([N+](=O)[O-])c2)c(C)n1-c1ccc(Cl)cc1` (centres undefined), the IC90 is greater than 10 µM. In addition, the IC50 under setting [1] is greater than 10 µM.
